One assay relates to CONAR (field bindweed). The assay can be described thus: Pre-emergence herbicidal activity, warm season. Type of assay: in vivo, Convolvulus arvensis. The settings on record: GR80 = lowest tested rate (300, 100, 30, 10 g/ha) with 80% or greater inhibition; approx. 14 days after treating; 30/21° C. The procedure, abridged:
(§1)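 Seeds sown in sterilised fertilised topsoil received surface-applied compound in 50:50 acetone/water, typically at 300, 100, 30 and 10 g/ha, then greenhouse-grown at 30/21° C (warm-season species) or 18/13° C (cool-season species). Percent inhibition versus untreated plants was scored at about 14 days, giving GR80; an asterisk marks activity short of 80% at the top rate.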

The test system of the next assay is LOLMG (annual ryegrass). The assay can be described thus: Pre-emergence herbicidal activity, cool season. Type of assay: in vivo, Lolium multiflorum. The settings on record: GR80 = lowest tested rate (300, 100, 30, 10 g/ha) with 80% or greater inhibition; approx. 14 days after treating; 18/13° C. In short, it runs like this:
as §1

Assay [1] has as its system AGRRE (quackgrass (seedling)). The assay can be described thus: Pre-emergence herbicidal activity, cool season. Type of assay: in vivo, Elymus repens. The settings on record: GR80 = lowest tested rate (300, 100, 30, 10 g/ha) with 80% or greater inhibition; approx. 14 days after treating; 18/13° C. The procedure, abridged: as §1
A further assay deals with KCHSC (kochia). The assay can be described thus: Pre-plant incorporated (PPI) herbicidal activity, cool season. Type of assay: in vivo, Kochia scoparia. The conditions noted are these: for PPI activity GR80, KCHSC: pre-plant incorporated, lowest tested rate with 80% or greater inhibition, about 14 days; for inhibition at 10 g/ha / inhibition at 30 g/ha / inhibition at 100 g/ha / inhibition at 300 g/ha / inhibition at 900 g/ha: Bassia scoparia, read-out: Percent inhibition KCHSC; for inhibition at 10 g/ha / inhibition at 30 g/ha / inhibition at 100 g/ha / inhibition at 300 g/ha / inhibition at 900 g/ha / Percent inhibition KCHSC: weed, PPI application. The procedure:
In another set of tests, the pre-plant incorporated (PPI) activity of compounds of this invention was evaluated on the same species as for the pre-emergence tests described above. In the PPI tests the following procedure, designed to simulate PPI application, was used.
A pre-prepared topsoil mixture (described above) was placed in a pot and compacted to a depth of 1.0 to 1.25 cm from the top of the pot. Seeds of each of several monocotyledonous and dicotyledonous annual plant species were placed on top of the soil. A sufficient quantity of soil to cover the seeds and level fill the pot was weighed into an open container. A known amount of the test compound was dissolved or suspended in an organic solvent and applied by spraying to this cover soil. The cover soil was thoroughly mixed to distribute the test compound throughout the cover soil, and was then applied as a cover layer over the seeds. Untreated soil was used as a cover layer for control pots. After treatment the plants were placed in a greenhouse where they received 0.64 cm of overhead irrigation. All subsequent watering consisted of a light overhead mist and/or subirrigation as needed for germination and growth. Tables 9 and 10 below relate to warm season plant species which were placed after pre-emergence treatment in a greenhouse with a 30/21° C. day/night temperature regime. Tables 11 and 12 below relates to cool season plant species placed after pre-emergence treatment in a greenhouse or growth chamber with an 18/13° C. day/night temperature regime. Only the compounds of Examples 1, 6, 8, 11, 13 and 15-20 were included in PPI tests.
Approximately 14 days after planting and treating, the plants were observed and herbicidal efficacy recorded as percent inhibition by comparison with untreated plants.

A further assay concerns ABUTH (velvetleaf). The assay can be described thus: Pre-emergence herbicidal activity, warm season. Type of assay: in vivo, Abutilon theophrasti. The conditions noted are these: GR80 = lowest tested rate (300, 100, 30, 10 g/ha) with 80% or greater inhibition; approx. 14 days after treating; 30/21° C. The procedure, abridged:
as §1

Consider `CCN(CC)C(=O)n1cnc(S(=O)(=O)C(F)(F)F)n1` [Example 2], for which the “Pre-emergence activity (GR80) CONAR” value with CONAR (field bindweed) is on record as 300 g/ha. Further, the “Pre-emergence activity (GR80) LOLMG” value in the assay with LOLMG (annual ryegrass) is 300 g/ha. Besides, in assay [1], the “Pre-emergence activity (GR80) AGRRE” value worked out at 100 g/ha.

Consider `CCN(CC)C(=O)n1cnc(S(=O)(=O)C(F)(F)Cl)n1` [Example 3], for which the “Pre-emergence activity (GR80) CONAR” value with CONAR (field bindweed) came to 300 g/ha.

Consider `CCN(CC)C(=O)n1cnc(S(=O)(=O)C(F)(F)C(F)(F)Br)n1` [Example 4], for which the “Pre-emergence activity (GR80) LOLMG” value in the assay on LOLMG (annual ryegrass) came to 300 g/ha. The “Pre-emergence activity (GR80) AGRRE” value in assay [1] came out at 30 g/ha.

Regarding `CCN(CC)C(=O)n1cnc(S(=O)(=O)C(F)(F)C(=O)c2ccccc2)n1` [Example 6], the “Pre-emergence activity (GR80) LOLMG” value in the assay with LOLMG (annual ryegrass) is reported as 300 g/ha. Further, the “Pre-emergence activity (GR80) AGRRE” value in assay [1] is recorded as 300 g/ha. The “PPI activity GR80, KCHSC” value with KCHSC (kochia) is recorded as 300 g/ha.

With `CCSC(F)(F)S(=O)(=O)c1ncn(C(=O)N(CC)CC)n1` [Example 8, 1-(N,N-diethylcarbamoyl)-3-[difluoro(ethylthio)methylsulfonyl]-1,2,4-triazole], in the assay with ABUTH (velvetleaf), the “Pre-emergence activity (GR80) ABUTH” value was 300 g/ha. Besides, the “Pre-emergence activity (GR80) CONAR” value in the assay on CONAR (field bindweed) stood at 100 g/ha. Also, the “PPI activity GR80, KCHSC” value in the assay with KCHSC (kochia) is recorded as 100 g/ha.

Take `CCN(CC)C(=O)n1cnc(S(=O)(=O)C(F)(F)SC)n1` [Example 9]: the “Pre-emergence activity (GR80) CONAR” value in the assay on CONAR (field bindweed) came to 300 g/ha. For the same compound, in the assay with LOLMG (annual ryegrass), the “Pre-emergence activity (GR80) LOLMG” value is “* (activity observed, at least at highest rate, but <80% inhibition)”.

With `CCN(CC)C(=O)n1cnc(S(=O)(=O)C(F)(F)SCCOC)n1` [Example 13], the “Pre-emergence activity (GR80) ABUTH” value with ABUTH (velvetleaf) came out at 300 g/ha. In addition, the “PPI activity GR80, KCHSC” value with KCHSC (kochia) is “* (activity observed, at least at highest rate, but <80% inhibition)”.

As for `CCN(CC)C(=O)n1cnc(S(=O)(=O)C(F)(F)C(F)(F)SC)n1` [Example 14], the “Pre-emergence activity (GR80) CONAR” value in the assay with CONAR (field bindweed) was “* (activity observed, at least at highest rate, but <80% inhibition)”. Besides, the “Pre-emergence activity (GR80) AGRRE” value in assay [1] is recorded as “* (activity observed, at least at highest rate, but <80% inhibition)”.

On to `CCN(CC)C(=O)n1cnc(S(=O)(=O)C(F)(F)C(F)F)n1` [Example 16], for which the “Pre-emergence activity (GR80) ABUTH” value in the assay with ABUTH (velvetleaf) stood at 300 g/ha. Moreover, the “Pre-emergence activity (GR80) CONAR” value in the assay with CONAR (field bindweed) was found to be 300 g/ha. Moreover, the “Pre-emergence activity (GR80) LOLMG” value with LOLMG (annual ryegrass) is 300 g/ha. Moreover, the “Pre-emergence activity (GR80) AGRRE” value in assay [1] was “* (activity observed, at least at highest rate, but <80% inhibition)”. In addition, in the assay on KCHSC (kochia), the “PPI activity GR80, KCHSC” value is given as 30 g/ha.

In the case of `C=CCC(F)(F)S(=O)(=O)c1ncn(C(=O)N(CC)CC)n1` [Example 17, 1-(N,N-diethylcarbamoyl)-3-[(1,1-difluoro-3-butenyl)sulfonyl]-1,2,4-triazole], in the assay with ABUTH (velvetleaf), the “Pre-emergence activity (GR80) ABUTH” value is on record as 300 g/ha. Besides, the “Pre-emergence activity (GR80) LOLMG” value in the assay with LOLMG (annual ryegrass) stood at 100 g/ha. Further, the inhibition (usually the share of the control response that was lost under treatment) at 10 g/ha in the assay on KCHSC (kochia) (10 g/ha) was found to be 70%. In the assay on KCHSC (kochia) (30 g/ha), the inhibition at 30 g/ha is 100%. Also, the inhibition at 100 g/ha in the assay with KCHSC (kochia) (100 g/ha) is 100%. For the same compound, the inhibition at 300 g/ha in the assay with KCHSC (kochia) (300 g/ha) is 100%. Moreover, in the assay on KCHSC (kochia) (900 g/ha), the inhibition at 900 g/ha worked out at 100%. The “PPI activity GR80, KCHSC” value in the assay with KCHSC (kochia) was found to be 30 g/ha.

Consider `C=C(C)CC(F)(F)S(=O)(=O)c1ncn(C(=O)N(CC)CC)n1` [Example 18], for which, in the assay on ABUTH (velvetleaf), the “Pre-emergence activity (GR80) ABUTH” value was “* (activity observed, at least at highest rate, but <80% inhibition)”. For the same compound, the “Pre-emergence activity (GR80) LOLMG” value in the assay with LOLMG (annual ryegrass) worked out at 300 g/ha. Moreover, the “Pre-emergence activity (GR80) AGRRE” value in assay [1] is 300 g/ha. For the same compound, in the assay on KCHSC (kochia) (10 g/ha), the inhibition at 10 g/ha came out at 40%. In the assay with KCHSC (kochia) (30 g/ha), the inhibition at 30 g/ha was 80%. The inhibition at 100 g/ha with KCHSC (kochia) (100 g/ha) was determined as 80%. The inhibition at 300 g/ha in the assay on KCHSC (kochia) (300 g/ha) was determined as 100%. The inhibition at 900 g/ha with KCHSC (kochia) (900 g/ha) is 100%.

Turning to `C=C(Br)CC(F)(F)S(=O)(=O)c1ncn(C(=O)N(CC)CC)n1` [Example 19], in the assay on CONAR (field bindweed), the “Pre-emergence activity (GR80) CONAR” value is listed as “* (activity observed, at least at highest rate, but <80% inhibition)”. Further, in the assay on LOLMG (annual ryegrass), the “Pre-emergence activity (GR80) LOLMG” value is listed as 300 g/ha. Further, the “Pre-emergence activity (GR80) AGRRE” value in assay [1] was “* (activity observed, at least at highest rate, but <80% inhibition)”. The inhibition at 10 g/ha in the assay on KCHSC (kochia) (10 g/ha) worked out at 0%. For the same compound, the inhibition at 30 g/ha in the assay on KCHSC (kochia) (30 g/ha) worked out at 20%. Further, in the assay with KCHSC (kochia) (100 g/ha), the inhibition at 100 g/ha turned out to be 80%. Further, the inhibition at 300 g/ha in the assay on KCHSC (kochia) (300 g/ha) was 80%. Moreover, the inhibition at 900 g/ha with KCHSC (kochia) (900 g/ha) was found to be 100%.

On to `C=C(CC(F)(F)S(=O)(=O)c1ncn(C(=O)N(CC)CC)n1)C[Si](C)(C)C` [Example 20], for which, in the assay with ABUTH (velvetleaf), the “Pre-emergence activity (GR80) ABUTH” value stood at 300 g/ha. Besides, the “Pre-emergence activity (GR80) CONAR” value in the assay with CONAR (field bindweed) was “* (activity observed, at least at highest rate, but <80% inhibition)”. Besides, the “PPI activity GR80, KCHSC” value in the assay with KCHSC (kochia) is “[empty]”. For the same compound, the “Percent inhibition KCHSC” value in the assay on KCHSC (kochia) (10 g/ha) is on record as 50%; in the assay with KCHSC (kochia) (30 g/ha) it was 50%; with KCHSC (kochia) (100 g/ha), 100%; with KCHSC (kochia) (300 g/ha), 100%; with KCHSC (kochia) (900 g/ha), 100%.

For the origin of these results see patent publication US6461997B1, “Triazole sulfones having herbicidal activity” (Monsanto Technology LLC, priority 1999, dated 2002).
